Data taken from publication PMC12586182 (Frontiers in Oncology, 2025).

Experiments:
Experiment in all cases: Kinase panel profiling at 1 µmol/L (mobility shift assay, Carna)
Format in all cases: biochemical
Settings in all cases: 1 µmol/L of BTK inhibitor
[1] = molecular target: T1, EPHA6 (Homo sapiens, UniProt Q9UF33)
T1 construct: purchased Carna Biosciences
T1 sequence (Q9UF33 23-1036): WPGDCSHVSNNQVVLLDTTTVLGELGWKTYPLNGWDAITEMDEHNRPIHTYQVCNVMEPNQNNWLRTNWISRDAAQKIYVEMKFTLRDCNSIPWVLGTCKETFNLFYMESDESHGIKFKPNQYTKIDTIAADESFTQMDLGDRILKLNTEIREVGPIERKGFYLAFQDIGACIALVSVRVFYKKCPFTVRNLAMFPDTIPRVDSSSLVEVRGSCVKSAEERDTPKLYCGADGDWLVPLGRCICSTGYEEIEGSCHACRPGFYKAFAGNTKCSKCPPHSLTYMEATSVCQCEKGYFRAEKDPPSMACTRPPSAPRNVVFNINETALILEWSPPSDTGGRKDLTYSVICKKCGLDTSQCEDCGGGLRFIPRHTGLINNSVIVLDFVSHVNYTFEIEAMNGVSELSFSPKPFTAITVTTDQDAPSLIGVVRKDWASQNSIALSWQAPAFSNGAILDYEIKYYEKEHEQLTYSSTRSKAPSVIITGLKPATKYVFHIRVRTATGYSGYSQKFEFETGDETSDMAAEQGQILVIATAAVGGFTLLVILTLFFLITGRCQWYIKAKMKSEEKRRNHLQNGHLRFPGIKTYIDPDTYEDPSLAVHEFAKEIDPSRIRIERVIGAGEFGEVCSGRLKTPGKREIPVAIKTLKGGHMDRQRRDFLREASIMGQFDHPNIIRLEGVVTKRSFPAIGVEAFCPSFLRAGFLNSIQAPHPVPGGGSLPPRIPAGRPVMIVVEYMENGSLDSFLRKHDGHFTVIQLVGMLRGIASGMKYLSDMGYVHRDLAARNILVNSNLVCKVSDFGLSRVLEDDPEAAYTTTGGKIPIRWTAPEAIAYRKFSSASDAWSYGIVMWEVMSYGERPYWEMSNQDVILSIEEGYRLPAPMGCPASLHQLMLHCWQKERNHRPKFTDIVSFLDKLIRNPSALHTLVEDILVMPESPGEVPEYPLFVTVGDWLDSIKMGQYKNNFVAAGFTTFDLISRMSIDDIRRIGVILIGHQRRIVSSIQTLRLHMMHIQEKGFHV

[2] = molecular target: T2, EPHB3 (Homo sapiens, UniProt P54753)
T2 construct: purchased Carna Biosciences
T2 sequence (P54753 34-998): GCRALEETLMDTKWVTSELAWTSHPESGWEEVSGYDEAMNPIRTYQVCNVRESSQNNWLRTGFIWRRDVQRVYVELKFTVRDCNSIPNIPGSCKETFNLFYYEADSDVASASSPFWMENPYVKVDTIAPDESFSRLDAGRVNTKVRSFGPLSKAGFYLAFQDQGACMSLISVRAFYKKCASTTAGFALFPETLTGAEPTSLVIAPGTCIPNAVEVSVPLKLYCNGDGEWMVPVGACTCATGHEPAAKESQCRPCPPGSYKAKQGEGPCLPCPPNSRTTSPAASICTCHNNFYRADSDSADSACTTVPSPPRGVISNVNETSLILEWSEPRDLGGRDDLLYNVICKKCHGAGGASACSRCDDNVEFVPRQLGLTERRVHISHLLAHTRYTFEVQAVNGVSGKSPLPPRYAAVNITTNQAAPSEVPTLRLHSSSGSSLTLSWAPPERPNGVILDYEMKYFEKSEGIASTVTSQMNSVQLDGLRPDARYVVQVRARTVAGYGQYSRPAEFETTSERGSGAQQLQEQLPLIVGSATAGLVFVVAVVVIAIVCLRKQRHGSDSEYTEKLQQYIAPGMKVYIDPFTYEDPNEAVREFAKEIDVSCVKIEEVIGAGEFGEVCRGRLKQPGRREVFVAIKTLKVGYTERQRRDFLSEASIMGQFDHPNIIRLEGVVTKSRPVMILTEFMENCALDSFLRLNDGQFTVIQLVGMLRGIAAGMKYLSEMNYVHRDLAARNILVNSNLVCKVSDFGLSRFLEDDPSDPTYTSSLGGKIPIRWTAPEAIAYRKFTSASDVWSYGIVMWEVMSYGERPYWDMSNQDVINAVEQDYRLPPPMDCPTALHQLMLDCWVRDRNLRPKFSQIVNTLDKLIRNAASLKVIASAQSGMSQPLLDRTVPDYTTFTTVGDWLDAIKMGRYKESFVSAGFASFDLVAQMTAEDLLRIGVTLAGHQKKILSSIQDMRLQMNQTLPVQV

[3] = molecular target: T3, JAK1 (Homo sapiens, UniProt P23458)
T3 construct: purchased Carna Biosciences
T3 sequence (P23458 whole entry): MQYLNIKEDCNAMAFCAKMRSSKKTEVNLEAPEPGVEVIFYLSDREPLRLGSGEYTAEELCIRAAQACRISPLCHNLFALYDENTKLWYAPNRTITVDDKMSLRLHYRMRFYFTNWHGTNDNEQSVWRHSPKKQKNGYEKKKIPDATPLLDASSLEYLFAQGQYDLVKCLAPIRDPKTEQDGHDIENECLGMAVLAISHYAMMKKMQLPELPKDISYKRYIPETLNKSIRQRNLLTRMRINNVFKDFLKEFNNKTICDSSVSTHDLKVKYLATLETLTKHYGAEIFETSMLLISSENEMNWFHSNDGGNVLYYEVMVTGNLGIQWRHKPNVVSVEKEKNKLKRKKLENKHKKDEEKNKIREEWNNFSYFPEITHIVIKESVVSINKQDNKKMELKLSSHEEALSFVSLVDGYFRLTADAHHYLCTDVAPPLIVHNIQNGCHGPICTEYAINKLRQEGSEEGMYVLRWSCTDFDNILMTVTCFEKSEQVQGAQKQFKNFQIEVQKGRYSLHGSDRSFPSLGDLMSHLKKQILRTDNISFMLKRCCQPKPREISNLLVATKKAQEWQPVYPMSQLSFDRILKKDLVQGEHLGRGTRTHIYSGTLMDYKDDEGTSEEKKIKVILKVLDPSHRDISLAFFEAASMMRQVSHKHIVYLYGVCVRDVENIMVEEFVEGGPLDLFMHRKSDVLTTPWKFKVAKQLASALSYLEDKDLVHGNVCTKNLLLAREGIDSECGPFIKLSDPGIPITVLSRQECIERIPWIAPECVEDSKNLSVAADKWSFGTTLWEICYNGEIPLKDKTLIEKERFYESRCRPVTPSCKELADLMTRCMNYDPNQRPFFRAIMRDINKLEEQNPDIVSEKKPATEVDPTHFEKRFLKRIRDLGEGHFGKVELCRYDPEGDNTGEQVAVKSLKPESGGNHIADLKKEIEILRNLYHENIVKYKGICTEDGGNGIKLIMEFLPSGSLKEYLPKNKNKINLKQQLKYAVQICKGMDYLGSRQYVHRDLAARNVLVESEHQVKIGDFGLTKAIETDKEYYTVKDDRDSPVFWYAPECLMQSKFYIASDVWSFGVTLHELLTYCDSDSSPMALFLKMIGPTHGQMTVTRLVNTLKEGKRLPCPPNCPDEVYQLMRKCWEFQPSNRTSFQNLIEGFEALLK

[4] = molecular target: T4, PASK (Homo sapiens, UniProt Q96RG2)
T4 construct: purchased Carna Biosciences
T4 sequence (Q96RG2 whole entry): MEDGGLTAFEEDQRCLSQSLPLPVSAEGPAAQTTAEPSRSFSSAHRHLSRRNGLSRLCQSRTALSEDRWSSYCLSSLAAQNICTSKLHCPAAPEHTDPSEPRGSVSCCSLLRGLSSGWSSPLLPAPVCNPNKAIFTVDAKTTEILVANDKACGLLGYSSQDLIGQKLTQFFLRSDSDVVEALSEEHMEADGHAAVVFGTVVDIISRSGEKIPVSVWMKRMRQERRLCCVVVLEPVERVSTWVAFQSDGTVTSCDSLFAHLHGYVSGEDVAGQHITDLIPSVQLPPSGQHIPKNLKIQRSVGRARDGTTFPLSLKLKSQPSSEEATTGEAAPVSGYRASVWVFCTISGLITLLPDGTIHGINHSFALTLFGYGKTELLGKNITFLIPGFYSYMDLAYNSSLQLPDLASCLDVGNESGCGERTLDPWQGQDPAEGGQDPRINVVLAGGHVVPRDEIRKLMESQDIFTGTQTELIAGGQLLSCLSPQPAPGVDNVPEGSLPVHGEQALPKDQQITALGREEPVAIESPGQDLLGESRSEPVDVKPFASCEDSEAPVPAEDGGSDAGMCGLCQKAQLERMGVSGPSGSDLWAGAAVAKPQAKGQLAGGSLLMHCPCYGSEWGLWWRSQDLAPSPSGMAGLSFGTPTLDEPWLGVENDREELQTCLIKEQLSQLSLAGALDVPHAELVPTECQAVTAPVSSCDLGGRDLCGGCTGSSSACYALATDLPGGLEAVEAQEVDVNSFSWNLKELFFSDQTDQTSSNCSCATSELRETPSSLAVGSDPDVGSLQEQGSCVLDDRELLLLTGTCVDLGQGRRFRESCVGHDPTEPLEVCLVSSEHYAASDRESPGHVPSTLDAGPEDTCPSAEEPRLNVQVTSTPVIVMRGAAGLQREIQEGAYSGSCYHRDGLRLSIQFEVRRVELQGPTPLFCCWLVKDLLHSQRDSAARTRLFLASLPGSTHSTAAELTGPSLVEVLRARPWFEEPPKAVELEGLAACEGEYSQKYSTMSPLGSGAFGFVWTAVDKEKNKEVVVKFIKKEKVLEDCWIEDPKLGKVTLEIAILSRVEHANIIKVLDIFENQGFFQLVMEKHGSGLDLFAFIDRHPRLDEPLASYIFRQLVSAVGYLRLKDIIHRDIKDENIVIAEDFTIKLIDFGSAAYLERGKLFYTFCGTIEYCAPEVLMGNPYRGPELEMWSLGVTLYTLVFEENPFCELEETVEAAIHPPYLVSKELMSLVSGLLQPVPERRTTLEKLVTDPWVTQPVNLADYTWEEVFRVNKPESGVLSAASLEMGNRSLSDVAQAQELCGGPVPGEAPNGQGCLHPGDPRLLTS

[5] = molecular target: T5, PKD1 (Homo sapiens, UniProt Q15139)
T5 construct: purchased Carna Biosciences
T5 sequence (Q15139 1-912): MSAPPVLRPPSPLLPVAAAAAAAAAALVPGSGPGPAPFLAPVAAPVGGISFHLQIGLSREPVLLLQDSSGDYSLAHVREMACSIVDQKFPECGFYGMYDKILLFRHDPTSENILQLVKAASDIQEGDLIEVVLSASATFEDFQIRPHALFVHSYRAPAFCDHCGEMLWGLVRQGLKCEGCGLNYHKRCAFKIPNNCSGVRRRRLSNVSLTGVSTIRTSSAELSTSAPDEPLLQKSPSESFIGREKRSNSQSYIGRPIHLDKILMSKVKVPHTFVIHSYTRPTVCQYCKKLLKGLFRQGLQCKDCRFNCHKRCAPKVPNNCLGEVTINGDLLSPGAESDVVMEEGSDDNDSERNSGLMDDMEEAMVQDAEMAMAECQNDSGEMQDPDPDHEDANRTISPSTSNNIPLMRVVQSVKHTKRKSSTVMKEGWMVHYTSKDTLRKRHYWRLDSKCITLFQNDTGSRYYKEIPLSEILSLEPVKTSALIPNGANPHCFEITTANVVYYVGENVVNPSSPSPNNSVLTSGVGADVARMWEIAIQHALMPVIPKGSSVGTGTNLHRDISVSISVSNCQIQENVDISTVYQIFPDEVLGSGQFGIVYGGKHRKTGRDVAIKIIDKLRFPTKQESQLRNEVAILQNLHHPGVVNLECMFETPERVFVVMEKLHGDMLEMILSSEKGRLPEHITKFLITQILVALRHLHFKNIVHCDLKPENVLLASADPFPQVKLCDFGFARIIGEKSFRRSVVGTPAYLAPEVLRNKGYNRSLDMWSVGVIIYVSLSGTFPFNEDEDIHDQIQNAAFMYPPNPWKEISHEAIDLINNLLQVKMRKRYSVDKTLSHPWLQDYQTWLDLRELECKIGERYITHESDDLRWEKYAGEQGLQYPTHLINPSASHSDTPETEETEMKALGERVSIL

| Structure (SMILES) | Percentage inhibition of kinase enzyme activity [1] | Percentage inhibition of kinase enzyme activity [2] | Percentage inhibition of kinase enzyme activity [3] | Percentage inhibition of kinase enzyme activity [4] | Percentage inhibition of kinase enzyme activity [5] |
| --- | --- | --- | --- | --- | --- |
| CC#CC(=O)N1CCC[C@H]1c1nc(-c2ccc(C(=O)Nc3ccccn3)cc2)c2c(N)nccn12 [acalabrutinib] | -2.37% | 1.64% | -12.91% | -5.37% | -9.48% |
| C=CC(=O)N1CCC([C@@H]2CCNc3c(C(N)=O)c(-c4ccc(Oc5ccccc5)cc4)nn32)CC1 [zanubrutinib] | 0.76% | -2.82% | -0.37% |  |  |
| O=C(c1ccc(Oc2ccccc2)cc1Cl)c1c[nH]c2ncnc(N[C@@H]3CC[C@@H](CO)OC3)c12 [nemtabrutinib] | 49.03% | 73.92% | 32.55% | 21.76% | 7.45% |
| COc1ccc(F)cc1C(=O)NCc1ccc(-c2nn([C@@H](C)C(F)(F)F)c(N)c2C(N)=O)cc1 [pirtobrutinib] | 6.36% | 34.88% | -2.12% | 3.07% | 4.89% |
| C=CC(=O)N1CCC[C@@H](n2nc(-c3ccc(Oc4ccccc4)cc3)c3c(N)ncnc32)C1 [ibrutinib] | 92.64% | 2.93% | -9.54% | -0.0437% | 3.22% |
